Experimental data published in publication PMC11249626, “Fluorophore-Labeled Pyrrolones Targeting the Intracellular Allosteric Binding Site of the Chemokine Receptor CCR1” (ACS Pharmacology & Translational Science, 2024).

Target: T1, CCR2 (Homo sapiens, UniProt P41597)
T1 construct: host or cells: HEK293T, transient
T1 sequence (P41597 1-360 isoform P41597-2): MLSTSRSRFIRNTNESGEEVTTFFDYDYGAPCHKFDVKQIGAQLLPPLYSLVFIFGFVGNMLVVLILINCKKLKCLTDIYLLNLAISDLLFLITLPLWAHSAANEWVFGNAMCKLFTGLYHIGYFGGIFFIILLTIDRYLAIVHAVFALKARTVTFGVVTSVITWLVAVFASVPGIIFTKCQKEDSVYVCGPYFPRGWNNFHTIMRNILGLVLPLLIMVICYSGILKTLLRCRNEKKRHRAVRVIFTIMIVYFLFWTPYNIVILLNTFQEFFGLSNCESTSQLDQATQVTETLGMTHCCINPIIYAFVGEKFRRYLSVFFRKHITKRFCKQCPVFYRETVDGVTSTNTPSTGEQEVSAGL
Assay: Membrane-based NanoBRET saturation binding assay, CCR2_GSSG_Nluc membranes
Procedure: Emission spectra of Nluc -labeled CCR1 (CCR1_Nluc) protein: The emission spectra of CCR1_Nluc has already been reported by Toy et al.1 For a confirmation of the reported data with new CCR1_Nluc membrane batches, furimazine (Promega, Mannheim, Germany 1:2000) was added to the membrane preparations (2 µg protein/well). […]
NanoBRET binding assays: Membrane-based NanoBRET saturation assay: For the establishment of our NanoBRET binding assay, we referred to recently published protocols. […]
Then, 20 µL of the membrane preparations diluted in assay buffer (3 µg total protein/well) were added and the plates were incubated for 90 min at 37 °C. Subsequently, 5 µL of a furimazine solution (Promega, Mannheim, Germany, final assay dilution: 1:5,000) were added to each well (final assay volume: 35 µL) before measuring luminescence with a CLARIOstar microplate reader using 620/10 nm and 475/30 nm emission filters after 5 min of incubation in the dark. Bioluminescence resonance energy transfer (BRET) was determined as the ratio of acceptor fluorescence and donor luminescence. […] Specific binding signals were calculated as a difference of total and non-specific binding. If required, netBRET values were calculated as the difference between total BRET values and the values obtained in the absence of a fluorescent ligand. […]

Row | Compound | Kd [nM]
1 | CN(C)c1ccc2c(-c3cc(C(=O)NCCOCCOCc4cn(CCCC(=O)C5=C(O)C(=O)N(c6ccc(Cl)cc6F)C5C5CCCCC5)nn4)ccc3C(=O)[O-])c3ccc(=[N+](C)C)cc-3oc2c1 (centres unmarked) [compound 11] | 1980 ± 270
2 | CN(C)c1ccc2c(-c3cc(C(=O)NCCOCCOCc4cn(CCCC(=O)C5=C(O)C(=O)N(c6ccc(Br)cc6F)C5C5CCCCC5)nn4)ccc3C(=O)[O-])c3ccc(=[N+](C)C)cc-3oc2c1 (centres unmarked) [compound 12] | 1690 ± 310
